The values that follow are results of earlier work, collected in patent US20040014955A1, “Identification of essential genes of cryptococcus neoformans and methods of use” (priority 2001, published 2004).

*1 amine or outer side, *2 acyl side, *3 side chain or, on linkers, in order; H or OH if unused. Where a SMILES comes first, the peptide text is derived from it. [ ]: non-standard residue; d: D form. X1 = CC[C@@H](C)[C@@H](O[*:1])C(=O)[*:2]; NMeVal(β-OH) = CN[C@H](C(=O)O)C(C)(C)O; NMeF = CN[C@@H](Cc1ccccc1)C(=O)O; NMeV = CN[C@H](C(=O)O)C(C)C

The subject of this series is C. neoformans. The settings on record: weanling outbred rats infected with C. neoformans by direct percranial puncture and inoculation into the cranium.

On to `CC[C@@H](C)[C@H]1OC(=O)[C@H](C(C)(C)O)N(C)C(=O)[C@H](CC(C)C)NC(=O)[C@H](C(C)C)N(C)C(=O)[C@H]([C@@H](C)CC)NC(=O)[C@@H]2CCCN2C(=O)[C@H](Cc2ccccc2)N(C)C(=O)[C@H](Cc2ccccc2)NC(=O)[C@H](C(C)C)N(C)C1=O` [LY295337] (cyclo(F[NMeF]PI[NMeV]L[NMeVal(β-OH)][X1][NMeV])), for which the “fungal counts in brain tissue” value was “reducing fungal counts in brain tissue” and the survival result was “effective in prolonging survival”.
